Measurements as given in patent US20180297966A1, “COMPOUNDS, COMPOSITIONS, AND METHODS OF MAKING AND USING THE SAME” (INNOVATIVE ANESTHETICS, LLC, priority 2015, published 2018).
Several values for one entry are separate records, joined by “and”; a condition that tells them apart may be missing. Equal values may be shown once. Where a name gives a salt, the structure may show the parent alone. Read-outs that look alike come from different tables or passages of the source.

Experiments:
[1] = pH of exemplary salts with respect to concentration (% w/v); assay type: physicochemical
rats (hindpaw heat pain) = assay: Hindpaw withdrawal latency to a thermal stimulus after injection of a caine salt; assay type: in vivo, Sprague Dawley rats; conditions: 1% by weight solution in water, 100 μl injected into hindpaw of rats, 10 minutes post-injection, compared to naïve animals, N=10 animals/group, cutoff 32 seconds
Protocol: Male Sprague Dawley® rats (200-300 g, Charles River) were housed in groups of two and were maintained in a standard 12-h light/dark cycle and testing was completed in the light portion of the cycle between 09:00-12:00. Animals were placed into the behavioural procedure room 30 min prior to testing to acclimate. When not in testing sessions, food and water were made available ad libitum. Animal testing procedures complied with the ethical guidelines and standards established by the University of Florida's Institutional Animal Care & Use Committee and with the Guide for Care and Use of Laboratory Animals (National Research Council Guide for the Care and Use of Laboratory Animals. Washington, D.C., National Academy Press; 1996.).
1% by weight solutions of 3a-3h were injected into the hindpaw of rats and withdrawal latency to a thermal stimulus was recorded 10 minutes post-injection. Response to hindpaw heat pain was determined by placing unrestrained rats on a clear glass platform under a small plastic cage and rats habituated for 5 min. A radiant heat source was aimed directly under the ventral hindpaw surface and the time to paw withdrawal was recorded. Baseline responses were obtained under naïve conditions (e.g., no injection), while post-treatment effects of caine salts 3a-3h in the respective vehicle (water) were assessed for 10 minutes following injection (100 μl). A cutoff of 32 seconds was used to prevent tissue damage.

Compound	pH ([1]; Conc. 2% w/v)	pH ([1]; Conc. 5% w/v)	pH ([1]; Conc. 10% w/v)	pH [1]	withdrawal latency to a thermal stimulus (rats (hindpaw heat pain))
CCCNC(C)C(=O)Nc1c(C)csc1C(=O)OC (stereo not shown) [Articaine hydrochloride, reference compound]	4.78	4.62	4.22		
CCCNC(C)C(=O)Nc1c(C)csc1C(=O)OC.O=C1NS(=O)(=O)c2ccccc21 (stereo not shown) [Articaine saccharinate, Articaine Saccharinate]				3.83 and 4.15	significant increase in latency time
CC1=CC(=O)NS(=O)(=O)O1.CCCCN1CCCCC1C(=O)Nc1c(C)cccc1C (stereo not shown) [Bupivacaine acesulfamate, Bupivacaine Acesulfamate]				4.25 and 5.13 and 5.38	significant increase in latency time
CCCCN1CCCCC1C(=O)Nc1c(C)cccc1C (stereo not shown) [Bupivacaine hydrochloride, reference compound]	5.22	4.81	4.23		
CCCCN1CCCCC1C(=O)Nc1c(C)cccc1C.O=C1NS(=O)(=O)c2ccccc21 (stereo not shown) [Bupivacaine saccharinate, Bupivacaine Saccharinate]				3.84 and 3.66 and 5.19	significant increase in latency time
CC1=CC(=O)NS(=O)(=O)O1.CNC[C@H](O)c1ccc(O)c(O)c1 [Epinephrine acesulfamate, Epinephrine Acesulfamate]				4.01 and 4.14 and 4.34	
CNC[C@H](O)c1ccc(O)c(O)c1 [Epinephrine hydrochloride, reference compound]	4.84	3.91	2.72		
CNC[C@H](O)c1ccc(O)c(O)c1.O=C1NS(=O)(=O)c2ccccc21 [Epinephrine saccharinate, Epinephrine Saccharinate]				3.57 and 4.03 and 4.41	
CC1=CC(=O)NS(=O)(=O)O1.CCN(CC)CC(=O)Nc1c(C)cccc1C [Lidocaine acesulfamate]				4.84 and 5.08 and 5.26	
CCN(CC)CC(=O)Nc1c(C)cccc1C [Lidocaine hydrochloride, reference compound]	4.65	4.53	3.94		
CCN(CC)CC(=O)Nc1c(C)cccc1C.O=C1NS(=O)(=O)c2ccccc21 [Lidocaine saccharinate]				4.31 and 4.41 and 4.51	
CC1=CC(=O)NS(=O)(=O)O1.Cc1cccc(C)c1NC(=O)C1CCCCN1C (stereo not shown) [Mepivacaine acesulfamate]	4.91	4.87	4.00		significant increase in latency time
Cc1cccc(C)c1NC(=O)C1CCCCN1C (stereo not shown) [Mepivacaine hydrochloride, reference compound]	4.53	3.77	3.73		
Cc1cccc(C)c1NC(=O)C1CCCCN1C.O=C1NS(=O)(=O)c2ccccc21 (stereo not shown) [Mepivacaine saccharinate, Mepivacaine Saccharinate]				4.06 and 4.23	significant increase in latency time
CC1=CC([O-])=NS(=O)(=O)O1.[K+] [Potassium acesulfamate, potassium 6-methyl-1,2,3-oxathiazin-4-olate 2,2-dioxide, reference compound]	5.98	6.33	5.78		
CC1=CC(=O)NS(=O)(=O)O1.CCCNC(C)C(=O)Nc1ccccc1C (stereo not shown) [Prilocaine acesulfamate, Prilocaine Acesulfamate]	5.16	5.00	4.71		significant increase in latency time
CCCNC(C)C(=O)Nc1ccccc1C (stereo not shown) [Prilocaine hydrochloride, reference compound]	4.60	3.42	2.10		
CCCNC(C)C(=O)Nc1ccccc1C.O=C1NS(=O)(=O)c2ccccc21 (stereo not shown) [Prilocaine saccharinate, Prilocaine Saccharinate]				4.47 and 4.96 and 5.04	
Articaine Acesulfamate					significant increase in latency time
